From PubChem BioAssay (NCI) come the findings set out here.

Where “and” joins values, the source holds several entries; their conditions need not be identical. Equal values may be shown once.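 Growth conditions: 96-well plates. Treatment: test compound, 48 hours, 5 concentrations. Analysis: linear interpolation between bracketing concentrations; unreached endpoints set to highest concentration. Here, GI50 denotes the concentration required for 50% inhibition of growth. At the TGI there is no net growth.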

Common to all, as to experiment: inhibition of tumour cell growth, NCI panel, 48 h
For test [1], the system named is ACHN renal.
For test [2], the system named is CAKI-1 renal.
Test [3] deals with OVCAR-3 ovarian.
Test [4] deals with OVCAR-4 ovarian.
Test [5] deals with SNB-19 CNS.
In test [6] the test system is SNB-75 CNS.
For test [7], the system named is HOP-62 NSCLC.
Test [8] relates to NCI-H460 lung.
Test [9] concerns NCI/ADR-RES ovarian.

Take `Cc1c2cc[n+](C)cc2c(C)c2c1[nH]c1ccc(OCC(F)(F)F)cc12`: the GI50 is 12 µM and > 100 µM in test [1]; 0.837 µM and 0.271 µM in [6]. Further, the TGI in test [1] was more than 100 µM; in test [2] it was more than 64.7 µM; in [3], 25 µM and > 100 µM; in test [4], more than 100 µM; in test [5] it was 3.02 µM; in test [6], 2.62 µM and 0.833 µM.
`CCCCn1c(-c2ccccc2)cs/c1=N\NC(=O)Cn1c(C)nc2ccccc21`: the TGI in test [1], in [2], in [7], in test [8], in [3] and in test [4] was more than 100 µM each time. In addition, the TGI in [5] and in test [6] was more than 100 µM throughout.
With `C=C1C(=O)OC2C[C@@]3(C)CCCC(=C)C3CC12` (some centres not stated), the TGI turned out to be 26.9 µM in test [1]; 19.4 µM in test [2]; 34.9 µM in test [7]; 18.1 µM in test [8]; 22.6 µM in test [3]; 26.6 µM in test [4]. Further, the TGI amounted to 23.4 µM in [5] and 20.1 µM in test [6].
In the case of `CN(C)Cc1cc(/C=C/C(=O)c2ccc(Br)cc2)cc(CN(C)C)c1O`, the TGI in [1] was 24.7 µM; in [2], 23.8 µM; in test [7], more than 100 µM; in test [8], 42.6 µM; in test [9], more than 100 µM; in [3], 71.4 µM. Further, the TGI turned out to be 48.2 µM in test [5] and 43.7 µM in test [6].
For the compound `O=c1[nH]c(=S)[nH]c2c1CCCN2`, the TGI in test [1], in test [2], in test [7], in [3], in [5] and in [6] was more than 100 µM in each case.
For `COc1cc(/C=C2\N=C(c3ccccc3)N(c3cc4cc(Sc5ccccc5)ccc4[nH]3)C2=O)ccc1O`, the TGI was more than 50 µM in test [1]; more than 50 µM in test [2]; more than 50 µM in test [8]; 36.1 µM in test [9]; more than 50 µM in [4]; more than 50 µM in test [5]. Moreover, the TGI in test [6] was more than 50 µM.
Turning to `C/C(=N/NC(N)=S)C(CN1CCOCC1)C(C1=C(O)c2ccccc2OC1)c1ccccc1` (configuration not stated), the TGI in [1], in test [2], in test [8], in test [3], in [4] and in test [5] was more than 100 µM each time. For the same compound, in [6], the TGI is more than 100 µM.
As for `C/C(N=NS(=O)(=O)c1c(C)cc(C)cc1C)=C1\C=CC=CN1O`, the TGI in [1], in test [2], in test [7], in test [8], in test [3] and in [4] was more than 100 µM each time. Moreover, the TGI in test [5] and in test [6] was more than 100 µM in each case.
With `COC(=O)c1c(CC(=O)OC(C)C)cc2n(c1=O)Cc1c-2nc2ccccc2c1OC`, the TGI in test [1], in test [2], in test [7], in test [8], in test [3] and in [4] was more than 100 µM in each case. The TGI in [5] and in [6] was more than 100 µM each time.
On to `O=Cn1c2ccccc2c2ccccc21`, for which the TGI in test [1], in test [7], in [8], in [3] and in [5] was more than 100 µM throughout.
As for `CN1COCN=C1NC#N`, the TGI in [1], in test [2], in test [7], in test [8], in [3] and in test [4] was more than 100 µM in each case. The TGI in test [5] and in test [6] was more than 100 µM in each case.
For `c1ccc(C2N=C(c3ccccn3)C(c3ccccn3)=NC2c2ccccc2)cc1` (configuration not stated), the TGI in [1], in test [2], in test [7], in [8], in test [3] and in [4] was more than 100 µM each time. Besides, the TGI in [5] was more than 100 µM.
For `O=c1cc(-c2ccccc2)oc2cc(OCCCCCCCCCCOc3ccc4c(=O)cc(-c5ccccc5)oc4c3)ccc12`, the TGI in [1], in [2], in test [7], in [3], in [4] and in test [5] was more than 100 µM in each case. The TGI in [6] is more than 100 µM.
Take `COC1CCC(CO)OO1` (configuration not stated): the TGI in [1] is more than 100 µM; in test [7], more than 100 µM; in [8], more than 100 µM; in test [3], 80.5 µM; in test [4], more than 100 µM; in [5], more than 100 µM. In addition, the TGI in test [6] is more than 100 µM.
